Experimental data as given in a melting point compilation (Tetko et al.; mined from patent text by program, amines drawn as free bases though some values may be those of a salt).

SMILES	melting point
Cc1cc(O)c(C(=O)CCC(=O)O)cc1Cl	181 to 182 °C
Cc1cc2c(cc1C(F)(F)F)N(c1ccc(C(=O)O)cc1)CCC[C@@H]2N(Cc1cc(C(F)(F)F)cc(C(F)(F)F)c1)c1nnn(C)n1	101 to 105 °C
CCCCc1nc2c(N)nc3ccccc3c2n1CCCNC(=O)OC(C)(C)C	193 °C
CCCCOc1nc(N)c2[nH]c(=O)n(CCCCNS(=O)(=O)c3ccc(CCC(=O)OC)cc3)c2n1	150 to 152 °C
CCCCCCCCCCc1ccnc(C(=O)NCC(=O)O)c1	79 to 81 °C
Cc1cc2c(cc1N)C(C)(C)CCC2(C)C	94 to 95 °C
CCOC(=O)c1ncn2c1[C@@H]1CCCN1C(=O)c1ccccc1-2	196 to 197 °C
CC(C#N)c1ccc(CCc2ccccc2C(=O)O)cc1 (stereo not given)	73 °C
COc1ccc2cc(C3CCN(CC(O)COc4ccccc4C=C4CCOC4=O)CC3)ccc2c1 (stereo not given)	148 to 150 °C
CC(C)COc1ccc2c(c1)CCC1C2=CCC2(C)C(=O)CCC12 (stereo not given)	107 to 108 °C
O=C(O)c1ccc(-n2c(-c3ccccc3)cc3c2CCCC3)cc1O	193 to 195 °C
COC1C(O)C(CO)OC1n1cc(C)c(=O)[nH]c1=O (stereo not given)	192 to 193 °C
CCCCCCC(C(=O)N1CCCC1CC(=O)O)n1cnc2cc(-c3ccccc3-c3nn[nH]n3)ccc21 (stereo not given)	122 to 125 °C
CCN(C)c1nc2cc(NC(=O)c3c(C(=O)N4CCOCC4)cnn3C)ccn2n1	167 to 169 °C
O=C(O)c1coc2ccc(OCc3ccccc3)cc2c1=O	170 to 173 °C
O=C(O)c1ccc(SC(Cn2ccnc2)c2cccnc2)cc1 (stereo not given)	80 to 83 °C
CC1OCC(C)n2c1nc1c(N)nc3ccccc3c12 (stereo not given)	218 to 223 °C
Cc1c([N+](=O)[O-])ccc(N)c1C(=O)O	183 to 184 °C
CON1CCC2(CC1)SC(=O)C(c1c(C)cc(C)cc1C)=C2O	67 to 71 °C
CCCCCCC(O)c1ccc2cc(OC)ccc2c1 (stereo not given)	71 to 74 °C
OC(Cn1cncn1)(c1ccc(Cl)cc1)C(F)(F)F (stereo not given)	117 to 118 °C
Oc1cc(CN/C=C2\CN=Cc3ccc(I)cc32)ccc1OC(F)F	254 to 255 °C
NC(=O)Nc1ccc(C(O)(C(F)(F)F)C(F)(F)F)cc1	176 to 179 °C
C[C@@](O)(C(=O)Nc1ccc(S(=O)(=O)c2ccccc2NCCO)cc1Cl)C(F)(F)F	68 to 70 °C
CNc1nc(N=[N+]=[N-])ncc1C#N	225 to 230 °C

SMILES	melting point
CCOC(=O)Cc1ccc(-c2nc(COc3ccc(COc4nn(-c5ccccc5)cc4/C=C/c4coc(C(C)(C)C)n4)cc3OC)c(C)o2)cc1	126 to 129 °C
Clc1ccc2c(c1)Cc1ccc(-c3nnn[nH]3)cc1S2	257 °C
CCOc1cccnc1CSCCN=C(NC#N)SC	98 to 99 °C
CC(C)(C)OC(=O)N=C(N)N(CCc1ccc(OCCC2Oc3ccccc3N(Cc3cccc(Cl)c3)C2=O)cc1)C(=O)OC(C)(C)C (stereo not given)	74 to 78 °C
N#Cc1cc(-c2c(-c3ccccc3)nn3ccccc23)cn(CCC(=O)O)c1=O	196 to 200 °C
CC1(C)Cc2cc([N+](=O)[O-])cc(OCC3CO3)c2O1 (stereo not given)	108 °C
CN(C)c1ccccc1Sc1nc2ccccc2[nH]1	148 to 149 °C
N#Cc1[nH]c(Br)c([N+](=O)[O-])c1Br	170 to 175 °C
CCOC(=O)c1c[nH]c2oc3ccccc3c(=O)c2c1=O	174 to 175 °C
Cc1nc(N2CCc3ccccc3CC2)c(C#N)c(=O)n1CC1CC1	119 to 122 °C
CC(C)(C)NS(=O)(=O)c1cccc2c1CSC2=O	121 to 124 °C
CCOC(=O)c1cn(CC)c2c(C)c(F)c(F)cc2c1=O	177 to 180 °C
C=CCC1(CC=C)c2cc(Br)ccc2-c2ccc(N(c3ccccc3)c3ccccc3)cc21	141 to 143 °C
COCc1ncc(C(=O)OC)n1C	74 to 77 °C
CCOC(=O)c1cn2ccncc2n1	179 °C
CCc1ccccc1N(C=C(C#N)C#N)N=C(C#N)C#N	172 to 174 °C
O=C(NCc1ccccc1)c1cc(O)c(O)c([N+](=O)[O-])c1	185 to 189 °C
O=C(Nc1cnc2ccccc2c1)c1cc2cc(F)ccc2n1Cc1cccc(F)c1	244 to 246 °C
COC(=O)C1CC(O)CN1C(=O)c1ccc2c(c1)OCCO2 (stereo not given)	185 °C
CC(C)(C)NC(=O)c1ccc(S(=O)(=O)N2C(=O)C(C)(c3ccccc3Cl)c3cc(O)ccc32)cc1 (stereo not given)	262 °C
COc1cc(-c2cccc([N+](=O)[O-])c2)ccc1N	167 to 168 °C
Nc1cc2oc(=O)[nH]c2cc1[N+](=O)[O-]	198 °C
CN1CCCCC1=NC(=O)Nc1ccccc1	145 to 158 °C
CC(C)c1nccn1Cc1ccc2c(c1)-c1[nH]nc(-c3ccsc3)c1C2	128 to 129 °C
O=C(C1(F)CC1Cc1ccc(Cl)cc1)C1(F)CC1Cc1ccc(Cl)cc1 (stereo not given)	53 to 54 °C

SMILES	melting point
CS(=O)(=O)c1ccc(C(=O)c2c(S(C)(=O)=O)noc2C2CC2)c(Cl)c1	150 °C
N#Cc1ccc(CC(=O)Cc2ccc(C#N)cc2)cc1	149 to 150 °C
C[Si](C)(C1C=Cc2c(-c3ccccc3)cccc21)C1C=Cc2c(-c3ccccc3)cccc21 (stereo not given)	109 to 110 °C
CCOC(=O)c1cc(C(=O)c2cccc(S(=O)(=O)F)c2)sc1N	168 to 170 °C
Cc1nc(C)c(Cl)c(NCc2cccc(O)c2)n1	194 to 197 °C
CSc1ccc(-c2cnn(C(C)(C)C)c(=O)c2OCCC(C)C)cc1	153 to 155 °C
NS(=O)(=O)c1ccc(-c2c(-c3ccccc3)noc2COCC(F)(F)CO)cc1	93 to 94 °C
C=CCO[C@H]1[C@@H](OCc2ccccc2)[C@@H](OCc2ccccc2)[C@H](OCc2ccccc2)[C@@H](OCc2ccccc2)[C@@]1(CCC)OC(=O)CCC (racemic)	115 °C
CCn1cc(C(=O)c2sc(NC(=O)c3ccncc3)nc2-c2ccco2)ccc1=O	295 to 296 °C
CCCN(CCC)S(=O)(=O)c1ccc(C(CC2CCCC2)C(=O)Nc2nc3ccc(OC)nc3s2)cc1 (stereo not given)	64 to 66 °C
Cc1ccc(N2CCN(Cc3ccc4c(c3)NCCN4)CC2)cc1C	148 to 149 °C
COc1ccc(C(=O)Nc2ccccc2)c2c1OCC2CC(=O)OCc1ccccc1 (stereo not given)	179 to 180 °C
Nc1ccccc1C(=O)NCCCCn1ccnc1	91 to 93 °C
Cn1nnnc1SCCCC(=O)c1ccc(C(=O)O)o1	154 to 157 °C
C=CCOc1cc(NC(=O)OC(C)(C)C)c([N+](=O)[O-])cc1I	93 to 95 °C
CCOC(=O)c1c(C)cc2c(=O)n(-c3cccc(Cl)c3)c(C)nc2c1C	150 to 152 °C
CNC(=O)N(O)CCCNC(=O)c1cccc(Oc2ccccc2)c1	175 to 177 °C
OC1(c2cccc(Cl)c2)CCN(c2nc3ccc(C(F)(F)F)cc3[nH]2)CC1	247 °C
CC(C)(C)C(NC(=O)Cc1ccc(Cl)cc1)NC(=NC#N)Nc1cccc2ncccc12 (stereo not given)	195 to 196 °C
O=[N+]([O-])c1cnn2ccccc12	179 to 182 °C
CCOC(=O)C1=C(C)NC(O)(C(Cl)(Cl)Cl)C(C(=O)OCC)C1c1cccc([N+](=O)[O-])c1 (stereo not given)	125 to 126 °C
Nc1nc(N)c2ncn(CC/C=C/P(=O)(O)O)c2n1	> 325 °C
CN(C)c1cc2c(cc1Cl)NC(=O)CC(c1cccc(-c3csc(N)n3)c1)=N2	247 to 248 °C
COc1ccccc1C(NCC(=O)Nc1c(C(C)C)cccc1C(C)C)c1ccccc1 (stereo not given)	133 to 134 °C
C[Si](C)(C)CCOCn1ccnc1-c1c(N)n(CC2CC2)c2nc(Cl)ccc2c1=O	70 °C

SMILES	melting point
Cc1ccc(S(=O)(=O)NC(=O)C(C)(NC(=O)NN(C)C)C(C)C)cc1 (stereo not given)	96 to 98 °C
COc1cc2c(c3c1OC(C)(C)C3)C(c1ccnc(Cl)c1)=NC(C)(C)C2	139 to 140 °C
CCOC(=O)c1c(N2CCN(C(=O)c3ccco3)CC2)c2cc(F)cnc2[nH]c1=O	207 °C
Nc1cc(N)c(-c2ccc([N+](=O)[O-])cc2-c2cccc(Cl)c2Cl)cn1	237 to 239 °C
Cc1cc(-c2ccccc2)n2nc(C(=O)N(C)C3CCCCC3)cc2n1	158 to 162 °C
CC(C)C(O)(Cn1cncn1)c1ccc(Oc2ccc(Cl)cc2)cc1C(F)(F)F (stereo not given)	114 °C
CCCCc1ccc(C(=O)O)c(=O)[nH]1	149 °C
CC(C)=CCCC(C)=CCS(=O)c1ccc2ccccc2c1 (stereo not given)	74 to 76 °C
Cc1c(O)c(=O)[nH]c2ccccc2c1=O	252 °C
NC(=S)c1nccn1Cc1cccs1	152 to 153 °C
N#Cc1cc(Br)c(O)c([N+](=O)[O-])c1	162 to 164 °C
Oc1ccccc1-c1nc(-c2ccccc2O)n(Cc2ccncc2)n1	197 to 199 °C
O=C1NCCc2ccc(OCCCCN3CCCN(c4cccc(Cl)c4Cl)CC3)cc21	86 to 88 °C
O=C1C=CC(=O)c2c1cccc2[N+](=O)[O-]	161 °C
CCCCCCCCCCCCCCCC(=O)OCC(COCc1ccccc1)OC(=O)CCCCCCCCCCCCCCC (stereo not given)	40 to 42 °C
COc1ccc(OCc2ccccc2)cc1C(=O)O	114 to 116 °C
Cc1ncc(-c2ccc3[nH]c4c(cc(-c5ccc(Cl)cc5Cl)c(=O)n4C)c3c2)o1	338 to 340 °C
COc1ccccc1N1CCN(CCCCOc2ccc(-c3cn4ccccc4n3)cc2)CC1	144 to 145 °C
O=C(O)C(=O)c1ccccc1Nc1c(Cl)cccc1Cl	159 to 160 °C
CC(C)(CO)CNC(=O)c1nn(C2CCCCO2)cc1NC(=O)c1ccccn1 (stereo not given)	189 to 190 °C
CNC(=NC#N)Nc1cccc(C(=O)NCCSCc2ccc(CN(C)C)o2)c1	140 to 142 °C
OC1(c2cccc(Cl)c2)CCN(CCCc2nnc3n2CCCCC3)CC1	146 to 148 °C
CCOC(=O)CCc1cn(Cc2ccc(OCc3ccccc3)cc2)nc1OCc1ccc(OCc2ccccc2)cc1	98 to 99 °C
Nc1cn(-c2cncnc2)nc1Cl	146 to 148 °C
C=CCNc1nc(NC(C)(C)C)c2scc(C)c2n1	89 to 90 °C
